Values of other authors, collected in publication PMC7426938, “Induction of mitochondria-mediated apoptosis and suppression of tumor growth in zebrafish xenograft model by cyclic dipeptides identified from Exiguobacterium acetylicum” (Scientific Reports, 2020).
Values after ≈ are worked out from the molar mass of the structure shown.

Experiments:
MCF-7 cells = system: MCF-7 cells; parameters: method as in PMID 15274345; details: read-out: dose giving 50% growth inhibition; cited from earlier work
HT-29 cells [1] = system: HT-29 cells; parameters: method as in PMID 15274345; details: read-out: dose giving 50% growth inhibition; cited from earlier work
HeLa cells = system: HeLa cells; parameters: method as in PMID 15274345; details: read-out: dose giving 50% growth inhibition; cited from earlier work
HL-60 cells = system: HL-60 cells; parameters: method as in PMID 29211005, PMID 10052845; details: cited from earlier work
HT-29 cells [2] = system: HT-29 cells; parameters: method as in PMID 29211005, PMID 10052845; details: cited from earlier work

Which IC50 (MCF-7 cells) does the source give for `O=C1NC(Cc2ccccc2)C(=O)N2CCCC12` (centres unmarked) [cyclo (Phe-Pro)] here?
The IC50 was less than 7 mM.

What about the IC50 (HT-29 cells [1]) of the same compound?
The IC50 was less than 7 mM.

What about the IC50 (HeLa cells) of the same compound?
Its IC50 is less than 7 mM.

For `O=C1NC(Cc2ccc(O)cc2)C(=O)N2CCCC12` (centres unmarked) [cyclo (Tyr-Pro)], which IC50 (MCF-7 cells) is on record?
Its IC50 is less than 7 mM.

What about the IC50 (HT-29 cells [1]) of the same compound?
The IC50 was less than 7 mM.

What about the IC50 (HeLa cells) of the same compound?
Its IC50 is less than 7 mM.

What does the source list for `CC(C)C[C@@H]1NC(=O)[C@H](NC(=O)c2cccc(O)c2O)CCCNC1=O` [petrocidin-A]?
IC50, anti-proliferative effect (HL-60 cells): 3.9 µg/mL (≈ 10.7 µM); IC50, anti-proliferative effect (HT-29 cells [2]): 5.3 µg/mL (≈ 14.6 µM)
